Legend:
Format in all cases: biochemical
[1] = biological target: GSK3B (GSK3 beta) (Homo sapiens, UniProt P49841); assay: Z'-LYTE kinome assay at […] (ATP Km app), n = […]; details: read-out: CRO15 1 μM
[2] = biological target: MAPKAPK2 (Homo sapiens, UniProt P49137); assay: Z'-LYTE kinome assay at […] (ATP Km app), n = […]; details: read-out: CRO15 1 μM
[3] = biological target: AKT2 (PKB beta) (Homo sapiens, UniProt P31751); assay: Z'-LYTE kinome assay at […], n = […]; details: read-out: CRO15 1 μM
Chain of AKT2 (PKB beta) (P31751 whole entry): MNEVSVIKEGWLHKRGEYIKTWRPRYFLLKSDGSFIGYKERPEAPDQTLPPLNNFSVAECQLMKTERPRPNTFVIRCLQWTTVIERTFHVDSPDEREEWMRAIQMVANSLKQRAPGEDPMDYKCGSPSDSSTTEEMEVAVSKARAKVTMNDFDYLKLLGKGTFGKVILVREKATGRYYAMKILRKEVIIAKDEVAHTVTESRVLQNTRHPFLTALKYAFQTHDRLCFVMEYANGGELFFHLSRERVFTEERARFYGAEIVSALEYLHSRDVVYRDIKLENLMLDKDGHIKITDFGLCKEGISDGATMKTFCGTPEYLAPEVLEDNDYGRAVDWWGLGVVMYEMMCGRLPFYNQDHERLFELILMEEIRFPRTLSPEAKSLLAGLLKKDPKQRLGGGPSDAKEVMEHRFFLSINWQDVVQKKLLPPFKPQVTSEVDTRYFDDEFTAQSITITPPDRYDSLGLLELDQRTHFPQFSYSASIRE

[4] = biological target: T1, MELK (maternal embryonic leucine zipper kinase) (Homo sapiens, UniProt Q14680); assay: Z'-LYTE kinome assay at […] (ATP Km app); ADP-Glo dose-response with recombinant MELK; supported by biotin-CRO15 pull-down
T1 construct: recombinant MELK protein
T1 sequence (Q14680 whole entry): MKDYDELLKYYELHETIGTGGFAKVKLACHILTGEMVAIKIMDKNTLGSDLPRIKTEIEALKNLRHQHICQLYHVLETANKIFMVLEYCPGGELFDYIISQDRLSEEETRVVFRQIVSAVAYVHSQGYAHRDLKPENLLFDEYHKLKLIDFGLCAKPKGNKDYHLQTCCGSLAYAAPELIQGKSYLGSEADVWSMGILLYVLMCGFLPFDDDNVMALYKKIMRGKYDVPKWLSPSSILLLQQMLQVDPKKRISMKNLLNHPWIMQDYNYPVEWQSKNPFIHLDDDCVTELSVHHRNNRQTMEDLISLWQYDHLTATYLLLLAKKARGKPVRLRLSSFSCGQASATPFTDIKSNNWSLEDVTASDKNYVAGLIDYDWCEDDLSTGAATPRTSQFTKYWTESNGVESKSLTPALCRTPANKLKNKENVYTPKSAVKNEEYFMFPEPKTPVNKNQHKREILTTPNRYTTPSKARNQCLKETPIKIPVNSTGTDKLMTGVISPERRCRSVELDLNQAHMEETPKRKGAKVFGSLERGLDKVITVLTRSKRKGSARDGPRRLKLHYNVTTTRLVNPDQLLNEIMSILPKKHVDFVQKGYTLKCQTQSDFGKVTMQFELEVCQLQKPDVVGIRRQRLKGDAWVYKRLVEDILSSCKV

Chain of GSK3B (GSK3 beta) (P49841 whole entry): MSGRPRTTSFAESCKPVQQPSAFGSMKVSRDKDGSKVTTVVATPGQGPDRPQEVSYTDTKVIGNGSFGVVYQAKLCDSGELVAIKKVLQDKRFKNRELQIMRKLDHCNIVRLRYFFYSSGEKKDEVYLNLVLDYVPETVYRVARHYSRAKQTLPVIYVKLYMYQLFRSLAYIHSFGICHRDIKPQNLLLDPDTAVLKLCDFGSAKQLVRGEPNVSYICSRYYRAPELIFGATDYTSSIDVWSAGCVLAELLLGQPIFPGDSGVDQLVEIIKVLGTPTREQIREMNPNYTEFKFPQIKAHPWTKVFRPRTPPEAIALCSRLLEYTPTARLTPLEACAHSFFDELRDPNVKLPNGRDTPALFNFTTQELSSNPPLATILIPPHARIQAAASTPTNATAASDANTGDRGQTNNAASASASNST
Chain of MAPKAPK2 (P49137 whole entry): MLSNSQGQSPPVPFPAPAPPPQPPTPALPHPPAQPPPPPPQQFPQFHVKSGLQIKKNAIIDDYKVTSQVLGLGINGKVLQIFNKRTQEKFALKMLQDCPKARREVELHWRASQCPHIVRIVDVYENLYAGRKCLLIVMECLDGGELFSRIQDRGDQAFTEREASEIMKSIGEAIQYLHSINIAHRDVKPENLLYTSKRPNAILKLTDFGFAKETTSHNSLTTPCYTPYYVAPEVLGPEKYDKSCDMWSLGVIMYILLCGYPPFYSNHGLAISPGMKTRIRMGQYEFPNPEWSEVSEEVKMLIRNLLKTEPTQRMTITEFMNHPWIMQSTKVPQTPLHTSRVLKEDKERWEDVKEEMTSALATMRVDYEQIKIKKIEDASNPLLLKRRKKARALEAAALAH

`Nc1nc(Nc2ccccc2SSc2ccccc2Nc2nc(N)nc(C(Cl)(Cl)Cl)n2)nc(C(Cl)(Cl)Cl)n1` [CRO15] was tested, and the inhibition at 1 µM [1] was 72%, the inhibition at 1 µM [2] was 90% and the inhibition at 1 µM [3] was 74%. It also gave an inhibition at 1 µM [4] of 72%.
